Assays:
[1] = tested on: AHR^fxneo/fxneo and AHR^fxneo/+ pups; assay: In utero exposure, closure of ductus venosus (DV); format: in vivo, mouse; details: dams 110 mg/kg i.p. at E18.5, examined at 4 weeks
Description: We have previously shown that genetically altered mice that express only 10% of the AHR display a patent ductus venosus (DV) in the liver in nearly all cases. We additionally identified that in utero activation of the receptor in the hypomorphs with TCDD successfully closed the DV [5]. […] At 4 weeks of age, the pups were sacrificed, and DV status was examined by hepatic perfusion with trypan blue.
Timed mating of female AHR^fxneo/+ mice to male AHR^fxneo/fxneo mice was performed. […] When the pups were 4 weeks of age, the status of the DV was determined by hepatic perfusion with Trypan Blue as previously described. Briefly, each mouse was anesthetized and its liver was flushed with PBS through the cannulated portal vein. […] Trypan blue was injected through the portal vein until the liver visibly turned blue (in the case of a closed DV) or until the dye was seen exiting the IVC without perfusing the liver (when the DV is open).

naïve T cells = assay: Naïve T cells in Th17 conditions, IL-17 ELISA of supernatant; format: cell-based, mouse; details: TGF-β 4 ng/ml, IL-6 20 ng/ml, 3 days
naïve CD4^+ T cells = assay: Naïve CD4+ T cells with TGF-β, flow cytometry of FoxP3 and CD39; format: cell-based, mouse; details: TGF-β 2 ng/ml with SU5416 250 nM, day 3
Text: An important role for the AHR in the immune system, and specifically T-cell differentiation, has been recognized and continues to be characterized in the literature, [7]. Some ligands of the AHR have the ability to enhance Treg differentiation from naïve T-cells (TCDD, kynurenine), while others direct differentiation towards Th17 effector cells (FICZ). […] IDO has long been known to play a role in Treg generation, and may be central to the mechanism of Dendritic Cell (DC)-directed Treg generation. We as well as others have previously shown that IDO mRNA can be induced by ligands of the AHR, and that the mechanisms of IDO-directed Treg generation may depend on the AHR [25]. […] As described in the Methods, naïve T-cells were sorted using magnetic bead separation, and placed in culture for 5 days with allogeneic pDCs separated from BALB/C mice. […]
A. Spleens were harvested from mice and processed in the standard fashion. […] Same assay as A, but mRNA for CYP1B1 and IDO were measured. […] Same assay as in C, but IDO mRNA was assessed. * - p≤0.05. * - p≤0.01. […]
Naive CD4^+ T cells were isolated using the CD4^+ CD62L Isolation Kit (Miltenyi Biotec, Auburn, CA) and an autoMACS. […] For quantitative PCR (qPCR) analysis, 2–5 × 10^5 cells were cultured in each well of a 96-well round-bottom plate coated with 0.5 µg/ml anti-CD3 and anti-CD28 overnight and then washed with PBS twice before seeding the cells. […]

human ARNT = assay: DRE-luciferase in ARNT-deficient C4 cells transfected with ARNT; format: cell-based; details: ARNT or empty vector, 3 µM, 18 h
rat AHR^b (5L) = target: T1, rat AHR^b (5L) (Rattus norvegicus, UniProt P41738); assay: EROD activity in rat hepatoma 5L cells; format: cell-based; details: 5L versus AHR^d-15 cells, 40 hours
T1 construct: endogenous in cells; host or cells: rat hepatoma 5L cells
T1 sequence (P41738 10-853): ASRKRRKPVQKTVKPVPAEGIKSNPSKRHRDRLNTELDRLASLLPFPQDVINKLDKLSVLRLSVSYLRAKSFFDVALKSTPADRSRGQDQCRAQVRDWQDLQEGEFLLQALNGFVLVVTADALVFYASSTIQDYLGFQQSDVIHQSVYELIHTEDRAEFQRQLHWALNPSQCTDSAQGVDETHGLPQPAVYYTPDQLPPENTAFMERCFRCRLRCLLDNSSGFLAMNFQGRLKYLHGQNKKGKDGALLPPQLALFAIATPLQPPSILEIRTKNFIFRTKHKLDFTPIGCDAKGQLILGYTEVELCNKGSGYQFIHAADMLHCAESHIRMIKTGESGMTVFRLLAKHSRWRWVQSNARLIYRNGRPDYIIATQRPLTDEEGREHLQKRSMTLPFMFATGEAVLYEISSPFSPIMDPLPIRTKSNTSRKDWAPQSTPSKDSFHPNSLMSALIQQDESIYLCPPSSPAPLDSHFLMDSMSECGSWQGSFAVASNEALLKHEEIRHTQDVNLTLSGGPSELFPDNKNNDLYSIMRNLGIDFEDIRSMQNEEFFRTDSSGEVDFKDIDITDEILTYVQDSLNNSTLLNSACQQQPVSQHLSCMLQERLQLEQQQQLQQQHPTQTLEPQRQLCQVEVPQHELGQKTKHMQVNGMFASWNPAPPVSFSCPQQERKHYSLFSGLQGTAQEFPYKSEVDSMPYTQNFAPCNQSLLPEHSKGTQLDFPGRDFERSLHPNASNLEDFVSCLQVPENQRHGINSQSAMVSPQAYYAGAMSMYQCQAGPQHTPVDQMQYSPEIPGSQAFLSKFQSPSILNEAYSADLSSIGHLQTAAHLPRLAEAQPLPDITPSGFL
Description: We utilized the wild type rat hepatoma cell line, 5L, which harbors the high affinity AHR isoform, and our newly created AHR^d-15 cell line. […] Groups of control mice were given corn oil alone or BNF at the concentration of 120 mg/kg.
Figure 3 In Vitro dose response curves. A. Rat hepatoma cell lines bearing the murine AHR^d (AHR^d-15) or the rat AHR^b (5L) were incubated with increasing doses of TCDD in 96-well plates. After 40 hours, EROD activity was performed from whole cell lysate. (n = 3). […] (n = 3). C. Same assay as in A, with increasing doses of BNF. (n = 2). […] Following 48 hours, hepatic microsomal proteins were isolated and used for the assessment of EROD activity. Animals were treated in groups of 4. Error bars: S.D.
High-throughput analysis of EROD activity was assayed by adapting a protocol that was described elsewhere, [63]. Briefly, cells were seeded into 96-well plates at ∼ 60% density and treated with the test compounds for 36 hours. The cells were washed with PBS and lysed with 30 µL water and a cycle of freeze-thaw. To each well, 150 µL of 50 mM Hepes buffer containing 26.7 µM dicumarol and 13.3 µM ethoxyresorufin were added. The samples were incubated at 30°C for 20 minutes, and 50 µL of 0.5 mM β-NADPH were added to initiate the reaction. Fluorescence of the resorufin product was detected using the 544 nm excitation and 590 nm emission wavelength filter set.

SMILES | closed DV, percent of pups ([1]; AHR^fxneo/+ pups) [%] | closed DV, percent of pups ([1]; AHR^fxneo/fxneo pups) [%] | IL-17 protein by ELISA in the supernatant (naïve T cells; higher doses) | IL-17 protein by ELISA in the supernatant (naïve T cells; low doses) | CD39 in the FoxP3^+ T cells (naïve CD4^+ T cells) | FoxP3 protein expression by flow cytometry (naïve CD4^+ T cells) | DRE-luciferase activity (human ARNT) | shift of EROD dose-response to the left for the AHR^b isoform (rat AHR^b (5L))
Cc1cc(C)c(C=C2C(=O)Nc3ccccc32)[nH]1 [SU5416, 3-(3,5-dimethyl-1H-pyrrol-2-ylmethylene)-1,3-dihydro-indole-2-one] | 100 | 59 | did not see this effect | small increase | upregulated | significantly enhanced | activity was only seen when ARNT was transfected | 
Clc1cc2c(cc1Cl)Oc1cc(Cl)c(Cl)cc1O2 [TCDD, 2,3,7,8-tetrachlorodibenzo-p-dioxin] |  |  |  |  |  |  |  | 1.5 orders of magnitude

Source: publication PMC3435281 (PLoS ONE, 2012)
